Reference: patent publication US5457092A, “Methods of promoting bone growth in mammals comprising administration of modified parathyroid hormone” (Gesellschaft fur Biotechnologische Forschung mbH (GBF), priority 1987, dated 1995)

Experiments:
[1] = test system: rat organs (epiphysis, diaphysis, kidney); experiment: CK specific activity in rat organs after i.p. injection; format: in vivo; conditions: for effect on CK activity in rat organs (in words): 0.875 μg/rat; for CK specific activity, Kidney / CK specific activity, Epiphysis / CK specific activity, Diaphysis: rat; for CK specific activity, Kidney: control 1.43 ± 0.20; for CK specific activity, Epiphysis: control 15.0 ± 2.2; for CK specific activity, Diaphysis: control 26.0 ± 3.,9
Experimental: FIG. 13 is a graph showing the time-dependent stimulation by hPTH (28-48) of CK specific activity in rat organs. Female rats (20-25 days old) were injected i.p. with hPTH-(28-48) (1.25 μg/rat). Experimental details are as described for FIG. 10. (a) Diaphysis, (b) epiphysis, (c) kidney. *P<0.05, **P<0.01 versus controls.
FIG. 14 is a graph showing the dose-dependent stimulation of CK specific activity by hPTH (1-34) in rat organs. Female rats (20-25 days old) were injected i.p. with hPTH-(1-34). At 4 h later, rats were killed and extracts were prepared and assayed as described below. Experimental details are as described for FIG. 10 (a) Diaphysis, (b) epiphysis, (c) kidney. *P<0.05, ** P<0.01 versus controls.
FIG. 15 is a graph showing the dose-dependent stimulation of CK specific activity by hPTH (28-48) in rat organs. Female rats (20-25 days old) were injected i.p. with hPTH-(28-48). Experimental details are as described for FIG. 13 (a) Diaphysis, (b) epiphysis, (c) kidney. *P<0.05, **P<0.01 versus controls.
FIG. 16 is a graph showing the […] stimulation by bPTH (1-84) of CK specific activity in rat organs. Female rats (20-25 days old) were injected i.p. with bPTH-(1-84) (3.5 μg/rat). At the times indicated, the rats were killed and the diaphyses (a) and epiphyses (b) of long bones as well as the kidneys (c) were collected and homogenized. Extracts were prepared and assayed as described below. Results are means ±S.E.M for π=5. Statistical significance of differences between treated and control groups by Student's T test: *P<0.05; **P<0.01. Note that the activity scales differ for different organs.
Kidneys, tibia and femur were excised; the epiphyses or diaphyses of the long bones were collected and washed thoroughly with cold 0.9% NaCl. The bones were split open lengthwise and the marrow was scraped out. Organs were homogenized in ice-cold buffer containing 50 mM-Tris/HCl (pH 6.8), 5 mH-magnesium acetate. 2.5 mM-dithiothreitol, 0.4 mM-EDTA and 250 mM-sucrose using a Polytron homogenizer in 10 s bursts with intervening cooling periods. Supernatant extracts were obtained by centrifugation at 12000 g for 5 min at 4° C. CK activity was measured at 30° C. in a Gilford 250 automatic recording spectrophotometer at 340 nm using a coupled assay for ATP, in 0.5 ml of incubation mixture containing 50 mM-imidazole acetate buffer (pH 6.7), 25 mM-phosphocreatine, 20 mM-N-acetylcysteine, 20 mM-D-glucose, 10 mM-magnesium acetate, 5 mM-EDTA, 2 mM-ADP, 2 mM-NAD+, 2 mM-dithiothreitol, 50 μM-diadenosine pentaphosphate (adenylate kinase inhibitor), 5 μg of bovine serum albumin. 1.2 units of glucose-6-phosphate dehydrogenase and 0.8 units of hexokinase. Protein was determined by the Coomassie Brilliant Blue dye-binding method, with bovine serum albumin as the standard.

[2] = test system: ROS 17/2.8 osteoblast-like cells; experiment: DNA synthesis in ROS 17/2.8 osteoblast-like cells; format: cell-based, rat; conditions: control 392 ± 58 c.p.m./μg of DNA
[3] = test system: ROS 17/2.8 osteoblast-like cells; experiment: CK specific activity in ROS 17/2.8 osteoblast-like cells; format: cell-based, rat; conditions: control 698 ± 70 nmol/min per mg of protein
[4] = test system: ROS 17/2.8 osteoblast-like cells; experiment: Cyclic AMP production in ROS 17/2.8 osteoblast-like cells; format: cell-based, rat; conditions: for Cyclic AMP, effect of fragment (experimental value/control value): control 29 ± 5.2 pmol/mg of protein
Experimental: When cultures of the widely used model for osteoblasts, the osteoblast-likeclone of rat osteosarcoma, ROS 17/2.8 (Endocrinology (Baltimore), 107 (1980) 1494-1503=12; Majeska et al.), were incubated with full-length PTH and PTH fragments (Table 4), cyclic AMP production was stimulated only by bPTH(1-84) and hPTH(1-34), whereas hPTH(25-39), hPTH(27-48), hPTH(28-48) and hPTH(34-47) were ineffective.

[5] = test system: rat epiphysial cartilage cell cultures; experiment: CK specific activity in rat epiphysial cartilage cell cultures; format: cell-based; conditions: for CK specific activity: 100 nM, control 225 ± 32
Experimental: To compare the stimulations seen in osteoblast-like cells (FIGS. 10 and 11) with PTH effects in a cartilage system, cultures of rat epiphysial cartilage cells were incubated with full-length PTH and selected PTH fragments (Table 3). CK activity was stimulated by bPTH(1-84) and hPTH(28-48) but not by hPTH(25-39) or hPTH(34-47). […] The comparison between the complete molecule and the mid-regional fragment hPTH (28-48) is similar to but not identical with the results obtained for calvaria cell cultures (FIGS. 10 and 11) and in the chick sternum chondrocyte system; cf. Biochem. J., 252 (1988) 263-268 (11; Farndale et al.),

[6] = test system: osteoblast enriched rat embryo calvaria cell cultures; experiment: CK specific activity in rat embryo calvaria cell cultures; format: cell-based; conditions: for CK specific activity, effect of fragment (experimental value/control value): 100 nM, 24 h, control 457 ± 46 nmol/min per mg of protein; for increase of CK activity (in words): treated for 24 h
How it was run: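 Osteoblast-enriched rat embryo calvaria cultures stimulated with PTH fragments from the central portion of the molecule. Cyclic AMP measured 15 min after stimulation; CK specific activity measured 24 h after stimulation. Values are means ±S.E.M., N≥5, compared with controls by Student's T test.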

[7] = 4 h after injection of 0.875 μg

In the case of “hPTH(25-39): PTH fragment 25-39, human source (RKKLQDVHNFVALGA; Parathyroid hormone; UniProt P01270 56-70, looked up, fragment)”, the “effect on CK activity in rat organs (in words)” value ([1]; equivalent to 14 nM) is reported as “significant increase”, the “CK specific activity, Kidney” value [1, 7] is reported as 3.22 ± 0.78 μmol/min per mg of protein and the “CK specific activity, Epiphysis” value [1, 7] is reported as 24.0 ± 3.2 μmol/min per mg of protein. The “CK specific activity, Diaphysis” value [1, 7] was 41.8 ± 4.9 μmol/min per mg of protein, the “[^3 H]Thymidine incorporation, effect of fragment (experimental value/control value)” value ([2]; 200 nM) was 1.36 ± 0.08 and the “CK specific activity, effect of fragment (experimental value/control value)” value ([3]; 200 nM) was 1.71 ± 0.08. For the same substance, the “stimulation of cyclic AMP production (in words)” value [4] was “ineffective”, the “Cyclic AMP, effect of fragment (experimental value/control value)” value ([4]; 200 nM) was 1.05 ± 0.15 and the CK specific activity [5] was 268 ± 36 nmol/min per mg of protein. The “CK specific activity, effect of fragment (experimental value/control value)” value [6] was 2.15 ± 0.24.

With “hPTH(28-48): mid-regional PTH fragment 28-48, human source (LQDVHNFVALGAPLAPRDAGS; Parathyroid hormone; UniProt P01270 59-79, looked up, fragment)” the “time of maximal increase of CK activity, diaphysis” value ([1]; 1.25 μg/rat i.p.) was 1 h, the “time of maximal increase of CK activity, epiphysis” value ([1]; 1.25 μg/rat i.p.) was 4 h and the “effect on CK activity after injection (in words)” value ([1]; 1.25 μg/rat i.p., equivalent to 14 nM) was “increased CK activity”. The “CK activity in diaphysis over time (in words)” value ([1]; 1.25 μg/rat i.p., 1, 4 and 24 h) was “significantly increased at all three times measured”, the “CK activity in epiphysis at 1 h (in words)” value ([1]; 1.25 μg/rat i.p., 1 h) was “significant increase” and the “CK activity in epiphysis at 24 h (in words)” value ([1]; 1.25 μg/rat i.p., 24 h) was “no significant increase”. For the same substance, the “CK specific activity in kidney at 24 h (in words)” value ([1]; 1.25 μg/rat i.p., 24 h) was “declined to close to the constitutive activity”, the “stimulation of CK specific activity in diaphysis at the dose of maximum effect” value ([1]; 1.25 μg/rat, 4 h later) was “approx. 3 fold” and the “dose of maximal effect on CK specific activity” value ([1]; i.p., 4 h later) was 1.25 μg/rat. For the same substance, the “dose giving a significant increase in CK specific activity in all organs” value ([1]; i.p., 4 h later, diaphysis, epiphysis, kidney) was 0.15 μg/rat, the “CK specific activity, Kidney” value ([1]; 4 h after injection of 1.25 μg) was 2.26 ± 0.34 μmol/min per mg of protein and the “CK specific activity, Epiphysis” value ([1]; 4 h after injection of 1.25 μg) was 20.9 ± 3.0 μmol/min per mg of protein. For the same substance, the “CK specific activity, Diaphysis” value ([1]; 4 h after injection of 1.25 μg) was 37.2 ± 3.3 μmol/min per mg of protein, the “[^3 H]Thymidine incorporation, effect of fragment (experimental value/control value)” value ([2]; 400 nM) was 1.56 ± 0.12 and the “CK specific activity, effect of fragment (experimental value/control value)” value ([3]; 400 nM) was 1.56 ± 0.08. For the same substance, the “stimulation of cyclic AMP production (in words)” value [4] was “ineffective”, the “Cyclic AMP, effect of fragment (experimental value/control value)” value ([4]; 400 nM) was 1.18 ± 0.28 and the “stimulation of CK activity (in words)” value [5] was “stimulated”. The CK specific activity [5] was 346 ± 36 nmol/min per mg of protein, the “CK specific activity, effect of fragment (experimental value/control value)” value [6] was 2.15 ± 0.15 and the “increase of CK activity (in words)” value [6] was “maximally active”.

“hPTH(34-47): PTH fragment 34-47, human source; comparative example (FVALGAPLAPRDAG; Parathyroid hormone; UniProt P01270 65-78, looked up, fragment) [reference compound]” was tested, and the “effect on CK activity in rat organs (in words)” value ([1]; equivalent to 14 nM) was “no effect”, the “CK specific activity, Kidney” value [1, 7] was 1.64 ± 0.32 μmol/min per mg of protein and the “CK specific activity, Epiphysis” value [1, 7] was 16.7 ± 2.5 μmol/min per mg of protein. For the same substance, the “CK specific activity, Diaphysis” value [1, 7] was 24.9 ± 4.8 μmol/min per mg of protein, the “[^3 H]Thymidine incorporation, effect of fragment (experimental value/control value)” value ([2]; 500 nM) was 1.05 ± 0.11 and the “CK specific activity, effect of fragment (experimental value/control value)” value ([3]; 500 nM) was 1.07 ± 0.10. The “stimulation of cyclic AMP production (in words)” value [4] was “ineffective”, the “Cyclic AMP, effect of fragment (experimental value/control value)” value ([4]; 500 nM) was 0.88 ± 0.31 and the CK specific activity [5] was 236 ± 32 nmol/min per mg of protein. For the same substance, the “increase of CK activity (in words)” value [6] was “inactive”.
